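The compound was tested at five concentrations on cells cultured in 96-well plates, with a 48-hour exposure period. Abbreviation: GI50, concentration required for 50% inhibition of growth. TGI denotes the concentration required for complete inhibition of growth.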
Legend:
Assay in all cases: inhibition of tumour cell growth, NCI panel, 48 h
[1] = test system: HT29 colon
[2] = test system: LOX IMVI melanoma
[3] = test system: K-562 leukemia
[4] = test system: COLO 205 colon
[5] = test system: SK-OV-3 ovarian
[6] = test system: NCI-H226 lung
[7] = test system: DU-145 prostate
[8] = test system: SK-MEL-2 melanoma
[9] = test system: U251 CNS
[10] = test system: IGROV1 ovarian
[11] = test system: OVCAR-5 ovarian
[12] = test system: SF-268 CNS
[13] = test system: MALME-3M melanoma
[14] = test system: MOLT-4 leukemia
[15] = test system: A549 NSCLC
[16] = test system: MDA-MB-435
[17] = test system: OVCAR-3 ovarian
[18] = test system: UACC-257 melanoma
[19] = test system: SK-MEL-5 melanoma
[20] = test system: BT-549 breast
[21] = test system: 786-0 renal
[22] = test system: MDA-MB-231 breast
[23] = test system: EKVX NSCLC
[24] = test system: SW-620 colon
[25] = test system: CAKI-1 renal
[26] = test system: HOP-62 NSCLC
[27] = test system: NCI-H23 lung
[28] = test system: NCI/ADR-RES ovarian
[29] = test system: SR leukemia
[30] = test system: KM12 colon
[31] = test system: TK-10 renal
[32] = test system: CCRF-CEM leukemia
[33] = test system: RPMI-8226 leukemia
[34] = test system: OVCAR-4 ovarian
[35] = test system: SK-MEL-28 melanoma
[36] = test system: OVCAR-8 ovarian
[37] = test system: UO-31 renal
[38] = test system: MCF7 breast
[39] = test system: A498 renal
[40] = test system: HCT-15 colon
[41] = test system: NCI-H460 lung
[42] = test system: HOP-92 NSCLC
[43] = test system: UACC-62 melanoma
[44] = test system: M14 melanoma
[45] = test system: SF-539 CNS
[46] = test system: HS 578T breast
[47] = test system: ACHN renal
[48] = test system: SF-295 CNS
[49] = test system: T-47D breast
[50] = test system: HCT-116 colon
[51] = test system: SN12C renal
[52] = test system: HCC-2998 colon
[53] = test system: SNB-75 CNS
[54] = test system: SNB-19 CNS
[55] = test system: NCI-H522 lung
[56] = test system: HL-60(TB) leukemia

CCNC(=O)N1CCc2c(Cl)c3c(c(OC)c2[C@@H]1[C@H]1OCc2c1ccc(OC)c2OC)OCCO3
GI50 [1]: 3.38 µM
TGI [1]: 25 µM
GI50 [2]: 4.64 µM
TGI [2]: 27.2 µM
GI50 [3]: 3.48 µM
TGI [3]: > 100 µM
GI50 [4]: 3.26 µM
TGI [4]: 10.9 µM
GI50 [5]: 4.58 µM
TGI [5]: > 100 µM
GI50 [6]: 4.44 µM
TGI [6]: > 100 µM
GI50 [7]: 4.2 µM
TGI [7]: > 100 µM
GI50 [8]: 6.01 µM
TGI [8]: > 100 µM
GI50 [9]: 3.75 µM
TGI [9]: 37.5 µM
GI50 [10]: 3.6 µM
TGI [10]: > 100 µM
GI50 [11]: 3.93 µM
TGI [11]: > 100 µM
GI50 [12]: 6.02 µM
TGI [12]: > 100 µM
GI50 [13]: 6.27 µM
TGI [13]: > 100 µM
GI50 [14]: 4.95 µM
TGI [14]: > 100 µM
GI50 [15]: 4.07 µM
TGI [15]: > 100 µM
GI50 [16]: 1.16 µM
TGI [16]: 2.83 µM
GI50 [17]: 2.31 µM
TGI [17]: 5.37 µM
GI50 [18]: 9.63 µM
TGI [18]: > 100 µM
GI50 [19]: 4.59 µM
TGI [19]: 21.1 µM
GI50 [20]: 6.84 µM
TGI [20]: > 100 µM
GI50 [21]: 4.24 µM
TGI [21]: > 100 µM
GI50 [22]: 4.95 µM
TGI [22]: 42.3 µM
GI50 [23]: 4.18 µM
TGI [23]: > 100 µM
GI50 [24]: 3.86 µM
TGI [24]: > 100 µM
GI50 [25]: 4.2 µM
TGI [25]: > 100 µM
GI50 [26]: 3.69 µM
TGI [26]: > 100 µM
GI50 [27]: 4.59 µM
TGI [27]: > 100 µM
GI50 [28]: 3.28 µM
TGI [28]: > 100 µM
GI50 [29]: 4.22 µM
TGI [29]: > 100 µM
GI50 [30]: 3.07 µM
TGI [30]: 16.5 µM
GI50 [31]: 13.5 µM
TGI [31]: > 100 µM
GI50 [32]: 3.82 µM
TGI [32]: > 100 µM
GI50 [33]: 4.41 µM
TGI [33]: > 100 µM
GI50 [34]: 40.6 µM
TGI [34]: > 100 µM
GI50 [35]: 16.5 µM
TGI [35]: > 100 µM
GI50 [36]: 4.17 µM
TGI [36]: > 100 µM
GI50 [37]: 5.52 µM
TGI [37]: > 100 µM
GI50 [38]: 2.72 µM
TGI [38]: > 100 µM
GI50 [39]: 2.6 µM
TGI [39]: 7.91 µM
GI50 [40]: 2.72 µM
TGI [40]: > 100 µM
GI50 [41]: 3.47 µM
TGI [41]: 13.9 µM
GI50 [42]: 11.7 µM
TGI [42]: 90 µM
GI50 [43]: 5.2 µM
TGI [43]: > 100 µM
GI50 [44]: 2.12 µM
TGI [44]: 5.39 µM
GI50 [45]: 2.35 µM
TGI [45]: 6.06 µM
GI50 [46]: 2.57 µM
TGI [46]: 9.13 µM
GI50 [47]: 6.5 µM
TGI [47]: > 100 µM
GI50 [48]: 1.86 µM
TGI [48]: 6.51 µM
GI50 [49]: 4.26 µM
TGI [49]: > 100 µM
GI50 [50]: 3.46 µM
TGI [50]: > 100 µM
GI50 [51]: 7.1 µM
TGI [51]: > 100 µM
GI50 [52]: 4.19 µM
TGI [52]: > 100 µM
GI50 [53]: 2.2 µM
TGI [53]: 7.07 µM
GI50 [54]: 4.36 µM
TGI [54]: > 100 µM
GI50 [55]: 1.87 µM
TGI [55]: 6.66 µM
GI50 [56]: 2.49 µM
TGI [56]: 6.43 µM
